The values below come from patent US20250009743A1, “METHODS OF TREATING CANCERS USING STING AGONISTS” (Dana-Farber Cancer Institute, Inc., priority 2021, published 2025).

In test [1] the test system is PBM-R tumors. The test is described as follows: PBM-R (PARPi-resistant) ovarian tumor burden in syngeneic FVB/NJ mice. In kind it is in vivo, mouse. To be noted: for PBM-R tumor growth inhibition: 14 days, olaparib 50 mg/kg i.p. daily, MSA-2 25 mg/kg i.p. three times a week, FIG. 23A. As to the method:
The PBM and PBM-R tumor cells were transplanted orthotopically into syngeneic FVB/NJ mice to generated tumors for drug evaluation. Tumor-bearing mice were equivalently divided into control and treatment groups according to the luminescent intensity as previously described (Ding et al., 2018; Cell Rep 25, 2972-2980.e2975). Olaparib (AZD2281) was administered daily by i.p. injection at dose of 50 mg/kg body weight. Anti-PD-1 antibody (clone, 332.8H3) was diluted in PBS (250 μg/100 μl/mouse) and injected by i.p. every 3 days. MSA-2 was prepared by diluting 50 mg/ml stock in DMSO with PBS (pH 8.0) and administered every other day (three times a week, two weeks on followed by one week off) by i.p. injection at dose of 25 mg/kg body weight. The endpoints were determined by tumor burden and ascites.

For test [2], the system named is BMDMs generated from FVB/NJ mice. Nature of the test: Polarization of mouse BMDMs cultured in PBM / PBM-R conditioned medium. In kind it is cell-based. As to the method:
For ex vivo culture of mouse macrophages, bone marrow cells were isolated from FVB/NJ mice and cultured in DMEM containing 10% FBS, 55 μM 2-Mercaptoethanol and 20 ng/ml M-CSF. BMDMs (bone marrow derived macrophages) were harvested on day 7 and further cultured in 2.0 ml control medium (90% DMEM, 10% FBS, 55 μM 2-Mercaptoethanol and 5 ng/ml M-CSF) described above or the medium containing 50% tumor cell conditioned medium for 72 hrs before analysis. For the tumor cell conditioned medium, about 3×10^5 tumor cells were cultured in 6-well plate for 24 hrs and then treated with DMSO or olaparib. After 24 hrs incubation with DMSO or olaparib, the tumor cells were washed twice with PBS and cultured in DMEM containing 10% FBS for 48 hrs. The tumor cell conditioned medium was collected by centrifugation at 1,500 g for 5 min at 4° C. to remove all the debris and cells. For the cytokine blocking experiment, monoclonal antibodies that specific to each cytokine were added to the tumor cell conditioned medium before it was applied to culture macrophages.

The test system of test [3] is PBM-R tumors. Nature of the test: Flow cytometry of tumor-infiltrating immune cells in PBM-R tumor-bearing mice. In kind it is in vivo, mouse. Conditions: 14 days; for STING pathway and activated (CD86^+) conventional DCs (cDCs): FIG. 23D. As to the method: Tumors were chopped and digested in collagenase buffer as described previously (Ding et al., 2018 Cell Rep 25, 2972-2980.e2975). Single cell suspensions of tumor and ascites were obtained by filtering through 70 um strainers and treated with 1× eBioscience RBC lysis buffer (Thermo Fisher) before staining. Single cells suspensions were incubated with LIVE/DEAD Fixable Aqua Dead Cell Stain (Life Technologies, Cat #L34965) for 30 min and then blocked with anti-CD16/32 (Biolegend, clone 93) for 20 min on ice. Samples were then incubated with appropriate antibodies for 30 min on ice. Foxp3 staining buffer set (eBioscience, Cat #00-5523-00) was applied for intracellular markers staining. For the intracellular cytokine analysis, cells were stimulated with Leukocyte Activation Cocktail (BD Biosciences, Cat #550583) at 37° C. for 4-6 hours prior to FACS staining. The following antibodies were used in this study: antibodies were purchased from BioLegend unless otherwise indicated: CD45 (clone 30-F11), CD3ε (clone 145-2C11), CD4 (clone RM4-5), CD8 (clone 53-6.7), CD44 (clone IM7), CD62L (MEL-14), CD25 (PC61), IFNγ (clone XMG1.2), TNFα (clone MP6-XT22), CD11b (clone M1/70), CD11c […], F4/80 (clone BM8), Ly-6C (clone HK1.4), Ly-6G (clone 1A8), MHC-II (clone M5/114.15.2), CD80 (clone 16-10A1), CD86 (clone GL-1), MHC-I (clone KH114), FoxP3 (clone FJK-16 s; eBioscience), Phospho-IRF-3 (Ser396) (clone D601M, Cell signaling technology) and Phospho-TBK1/NAK (Ser172) (clone D52C2, Cell signaling technology). The following human antibodies were used in this study: cell surface markers includes CD45 (clone H130), CD11b (clone M1/70), CD11c (clone Bu15), CD80 (clone 2D10), CD86 (clone IT2.2), CD14 (clone 63D3), CD15 […], HLA-DR (clone L243) and HLA-A,B,C (clone W6/32); intracellular markers include CD163 (clone GHI/61), CD68 (clone Y1/82A) and CD206 (clone 15-2). Flow cytometry was performed on an LSRII (BD Biosciences) or Fortessa HTS (BD Biosciences) at DFCI Flow Cytometry Core, and all the data were analyzed using FlowJo software.
Background: In flow cytometry, cells or beads pass a laser one at a time.

The subject of another test is orthotopic BP tumors. Nature of the test: BP (Brca1−/− Trp53−/−) orthotopic tumor growth in FVB mice. Format: in vivo, mouse. As to the method:
Primary mammary tumor cells for orthotopic injection were resuspended in serum-free DMEM containing 40% matrigel (Corning). […] Tumor growth was examined by measuring the greatest longitudinal diameter (length) and the greatest transverse diameter (width) with digital calipers, and tumor volume was calculated by use of the modified ellipsoid formula (0.52×length×width2). Tumors were measured 2-3 times a week. All tumor measurements within single cohorts were performed by the same researcher. Tumor-bearing mice were randomized prior to start of treatment. Drug treatments were started when mean tumor volumes approximated 50-100 mm3. Mice were euthanized by CO2 inhalation when tumor volumes met humane endpoints described in the IACUC (20 mm diameter) protocols or upon severe health deterioration.
For intratumoral injection (i.t.), 250 μg DMXAA (approximately 10 mg/kg body weight) was administered once per week for 3 doses. For i.p. injections, DMXAA was administered at a dose of 10 mg/kg body weight once weekly and terminated if tumor size exceeded 600 mm3. […] Anti-mouse CSF1R antibody (CS7, Eli Lilly) was dosed at 40 mg/kg via i.p. every 3 days.

Where [4] appears, read: olaparib 50 mg/kg i.p. q.d., DMXAA 10 mg/kg intratumoral once per week, 3 doses, start around 100 mm3, FIG. 9A.

In the case of `COc1cc2cc(C(=O)CCC(=O)O)sc2cc1OC` [MSA-2], the “PBM-R tumor growth inhibition” value in the test with PBM-R tumors [1] was “little or no effect”. The PBM-R tumor weight entry in the test with PBM-R tumors [1] (MSA-2 25 mg/kg i.p. three times per week with olaparib 50 mg/kg + anti-PD-1, two weeks, FIG. 14D) is “sensitizes PARPi-resistant tumors to olaparib in vivo”. The M1/M2 ratio entry in test [2] (BMDMs in 50% PBM-R-CM, ADU-S100 10 μM or MSA-2 5 ug/ml, two days, FIG. 21B) is on record as “significantly increased”. The “proportion of TAMs” value with PBM-R tumors [3] (FIG. 23B) is “dramatically decreased”. Besides, in the test on PBM-R tumors [3] (FIG. 23C), the “ratio of M1/M2” value is given as “increase”. For the same compound, the “STING pathway and activated (CD86^+) conventional DCs (cDCs)” value in the test on PBM-R tumors [3] was “activated the STING pathway and increased tumor-infiltrating activated (CD86^+) conventional DCs”.
`Cc1ccc2c(=O)c3cccc(CC(=O)O)c3oc2c1C` [DMXAA, 5,6-dimethyl-xanthenone-4-acetic acid]: the BP tumor growth entry with orthotopic BP tumors (setting [4]) is listed as “modest tumor growth inhibition”.
`O=C(c1cc(Cc2n[nH]c(=O)c3ccccc23)ccc1F)N1CCN(C(=O)C2CC2)CC1` [olaparib]: the BP tumor growth entry in the test on orthotopic BP tumors (olaparib 50 mg/kg i.p. daily, FIG. 1C) is reported as “modest”; in the test with orthotopic BP tumors (setting [4]), “modest tumor growth inhibition”. In addition, in the test with PBM-R tumors [1], the “PBM-R tumor growth inhibition” value is reported as “little or no effect”. Further, the “response of PBM-R-shStat3 tumors in vivo” value in the test on PBM-R tumors [1] (PBM-R cells with STAT3 knockdown, FIG. 19I) is recorded as “became sensitive”. For the same compound, in the test with PBM-R tumors [1] (orthotopically re-transplanted to syngeneic host mice, FIG. 15E), the “PBM-R tumor response in vivo” value was “indeed resistance to PARPi in vivo”. Further, in test [2] (FIG. 19E), the “M2-like TAM polarization of BMDMs by CM from olaparib-treated PBM cells (PBM-OLA-CM)” value is “stronger effect on M2-like TAM polarization of BMDMs than PBM-CM”. Also, the “STING pathway and activated (CD86^+) conventional DCs (cDCs)” value in the test with PBM-R tumors [3] was “activated the STING pathway and increased tumor-infiltrating activated (CD86^+) conventional DCs”.
